From ChEMBL document CHEMBL2203133 (J Med Chem, 2012)
One block for each compound: values may come before it. Active and inactive are the calls of the source. The calls are words filed in the database; no cut-off is given here.

Assays:
[1] = target: T1, Serine/threonine-protein kinase Chk1 (Homo sapiens, UniProt O14757)
T1 sequence (O14757 whole entry): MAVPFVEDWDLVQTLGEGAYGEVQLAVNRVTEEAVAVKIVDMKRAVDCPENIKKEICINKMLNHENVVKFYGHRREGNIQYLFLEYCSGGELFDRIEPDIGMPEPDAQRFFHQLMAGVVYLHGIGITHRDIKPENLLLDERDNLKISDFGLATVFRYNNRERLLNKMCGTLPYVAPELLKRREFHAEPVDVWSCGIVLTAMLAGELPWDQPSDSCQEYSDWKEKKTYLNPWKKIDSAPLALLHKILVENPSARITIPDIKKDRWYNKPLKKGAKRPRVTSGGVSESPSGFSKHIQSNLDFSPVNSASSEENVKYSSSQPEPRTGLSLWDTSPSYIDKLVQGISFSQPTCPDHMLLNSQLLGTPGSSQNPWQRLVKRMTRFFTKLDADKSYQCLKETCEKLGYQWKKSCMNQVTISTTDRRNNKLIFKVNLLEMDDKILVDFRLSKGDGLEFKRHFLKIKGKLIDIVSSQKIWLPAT

[2] = target: T2, hERG (KCNH2) (Homo sapiens, UniProt Q12809); assay: Inhibition of human ERG overexpressed in HEK cells at 10 uM; type: cell-based, HEK293; settings: HEK cells overexpressing human ERG
[3] = tested on: HT-29; assay: Antitumor activity against human HT-29 cells xenografted in athymic mouse assessed as tumor growth delay at 12.5 mg/kg, ip tid for 7 days (reference value: 6.9 1.5); type: functional; settings: route intraperitoneal
[4] = tested on: Mus musculus; assay: Toxicity in athymic mouse xenografted with human HT-29 cells assessed as body weight loss at 12.5 mg/kg, ip tid for 7 days; type: organism-based; set-up: dose 12.5 mg/kg, route intraperitoneal; settings: in vivo, 168 h
[5] = target: Voltage-gated inwardly rectifying potassium channel KCNH2 (Homo sapiens, UniProt Q12809)
[6] = target: T2, hERG (KCNH2); assay: Inhibition of human ERG overexpressed in HEK cells at 11 uM; type: cell-based, HEK293; settings: HEK cells overexpressing human ERG
[7] = Plasma concentration in BALB/c mouse at 10 mg/kg, po at 6 hrs; type: ADME, organism-based; set-up: dose 10 mg/kg, route oral
[8] = Plasma concentration in BALB/c mouse at 10 mg/kg, po at 1 hr; type: ADME, organism-based; set-up: dose 10 mg/kg, route oral
[9] = Plasma concentration in BALB/c mouse at 10 mg/kg, iv at 6 hrs administered as bolus dose; type: ADME, organism-based; set-up: dose 10 mg/kg, route intravenous
[10] = in vitro; settings: mouse, liver microsomes
[11] = Plasma concentration in BALB/c mouse at 10 mg/kg, iv at 1 hr administered as bolus dose; type: ADME, organism-based; set-up: dose 10 mg/kg, route intravenous
[12] = tested on: Mus musculus; assay: Toxicity in athymic mouse xenografted with human SW620 cells assessed as body weight loss at 100 mg/kg, iv tid for 4 days; type: organism-based, SW-620; set-up: dose 100 mg/kg, route intravenous; settings: in vivo, 96 h
[13] = tested on: Calu-6; assay: Antitumor activity against human Calu6 cells xenografted in athymic mouse assessed as tumor growth delay at 100 mg/kg, iv tid for 7 days (reference value: 6.9 1.6); type: functional
[14] = tested on: Mus musculus; assay: Toxicity in athymic mouse xenografted with human Calu6 cells assessed as body weight loss at 100 mg/kg, iv tid for 7 days; type: organism-based, Calu-6; set-up: dose 100 mg/kg, route intravenous; settings: in vivo, 168 h
[15] = tested on: Mus musculus; assay: Toxicity in athymic mouse xenografted with human HT-29 cells assessed as body weight loss at 100 mg/kg, iv tid for 7 days; type: organism-based; set-up: dose 100 mg/kg, route intravenous; settings: in vivo, 168 h
[16] = tested on: SW-620; assay: Antitumor activity against human SW620 cells xenografted in athymic mouse assessed as tumor growth delay at 100 mg/kg, iv tid for 4 days (reference value: 5.3 1.3); type: functional
[17] = tested on: HT-29; assay: Antitumor activity against human HT-29 cells xenografted in athymic mouse assessed as tumor growth delay at 100 mg/kg, iv tid for 7 days (reference value: 8.8 4.8); type: functional
[18] = target: Serine/threonine-protein kinase Chk2 (Homo sapiens, UniProt O96017)
[19] = tested on: Mus musculus; assay: Oral bioavailability in BALB/c mouse at 10 mg/kg; type: ADME, organism-based; settings: in vivo
[20] = Thermodynamic solubility of the compound in water; type: physicochemical
[21] = tested on: Mus musculus; assay: Clearance in BALB/c mouse at 10 mg/kg, iv and po; type: ADME, organism-based; set-up: dose 10 mg/kg, route oral; settings: in vivo
[22] = Toxicity in po dosed mouse; type: organism-based; settings: in vivo
[23] = Drug uptake in human SW620 cells xenografted in athymic nude mouse at 160 mg/kg, po measured at 6 to 12 hrs in presence of gemcitabine; type: ADME, organism-based, SW-620; set-up: dose 160 mg/kg, route oral; settings: in vivo
[24] = tested on: Caco-2; settings: human
Description: Permeability across apical to basolateral side in human Caco2 cells

[25] = target: Cyclin-dependent kinase 1 (Homo sapiens, UniProt P06493)
[26] = tested on: Plasma; assay: Plasma protein binding in human; type: ADME, cell-free
[27] = species: Mus musculus; settings: SW-620, 160 mg/kg
[28] = tested on: Mus musculus; assay: Volume of distribution at steady state in BALB/c mouse at 10 mg/kg, iv and po; type: ADME, organism-based; set-up: dose 10 mg/kg, route oral; settings: in vivo
[29] = Aqueous solubility in phosphate buffer at pH 6.5; type: physicochemical
[30] = species: Mus musculus; settings: SW-620, 160 mg/kg; remark: listed apart in the source

T2 sequence (Q12809 whole entry): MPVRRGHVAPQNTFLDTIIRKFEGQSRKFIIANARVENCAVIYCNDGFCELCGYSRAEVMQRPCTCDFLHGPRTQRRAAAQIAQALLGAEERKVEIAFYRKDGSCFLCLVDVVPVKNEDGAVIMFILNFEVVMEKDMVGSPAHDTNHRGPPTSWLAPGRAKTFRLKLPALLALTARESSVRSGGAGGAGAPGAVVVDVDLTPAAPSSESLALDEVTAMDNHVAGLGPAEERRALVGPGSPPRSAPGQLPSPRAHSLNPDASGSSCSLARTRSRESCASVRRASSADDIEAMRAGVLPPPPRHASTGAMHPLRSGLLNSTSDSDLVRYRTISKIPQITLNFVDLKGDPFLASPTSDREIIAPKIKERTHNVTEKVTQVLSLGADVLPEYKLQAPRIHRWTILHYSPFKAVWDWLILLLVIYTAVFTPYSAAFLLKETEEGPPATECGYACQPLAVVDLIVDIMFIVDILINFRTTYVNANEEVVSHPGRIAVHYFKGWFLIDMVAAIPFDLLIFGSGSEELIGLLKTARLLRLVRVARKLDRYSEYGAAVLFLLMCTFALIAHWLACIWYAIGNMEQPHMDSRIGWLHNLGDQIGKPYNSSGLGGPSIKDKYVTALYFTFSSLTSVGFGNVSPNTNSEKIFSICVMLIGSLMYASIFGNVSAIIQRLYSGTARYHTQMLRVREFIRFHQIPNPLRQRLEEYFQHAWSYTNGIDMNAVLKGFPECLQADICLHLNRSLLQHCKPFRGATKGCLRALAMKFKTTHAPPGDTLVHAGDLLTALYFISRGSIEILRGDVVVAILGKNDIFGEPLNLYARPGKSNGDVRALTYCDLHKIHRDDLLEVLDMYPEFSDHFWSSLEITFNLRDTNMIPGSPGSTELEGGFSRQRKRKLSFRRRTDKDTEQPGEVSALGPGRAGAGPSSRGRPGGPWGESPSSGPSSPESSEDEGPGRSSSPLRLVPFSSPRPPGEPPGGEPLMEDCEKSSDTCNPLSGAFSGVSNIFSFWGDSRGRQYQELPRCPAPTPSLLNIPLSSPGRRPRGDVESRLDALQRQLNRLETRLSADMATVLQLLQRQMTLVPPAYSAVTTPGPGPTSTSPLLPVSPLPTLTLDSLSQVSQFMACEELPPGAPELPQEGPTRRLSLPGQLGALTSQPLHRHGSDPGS
Sequence of Voltage-gated inwardly rectifying potassium channel KCNH2 (Q12809 whole entry): as above
Sequence of Cyclin-dependent kinase 1 (P06493 whole entry): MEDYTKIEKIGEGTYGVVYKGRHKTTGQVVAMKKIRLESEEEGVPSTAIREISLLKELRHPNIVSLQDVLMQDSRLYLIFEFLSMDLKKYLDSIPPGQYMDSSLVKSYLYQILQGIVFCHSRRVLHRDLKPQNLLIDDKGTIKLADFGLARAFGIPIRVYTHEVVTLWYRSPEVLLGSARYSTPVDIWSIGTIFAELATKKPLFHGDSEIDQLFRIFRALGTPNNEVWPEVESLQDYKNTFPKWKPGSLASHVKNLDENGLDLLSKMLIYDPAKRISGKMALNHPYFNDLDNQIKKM
Sequence of Serine/threonine-protein kinase Chk2 (O96017 whole entry): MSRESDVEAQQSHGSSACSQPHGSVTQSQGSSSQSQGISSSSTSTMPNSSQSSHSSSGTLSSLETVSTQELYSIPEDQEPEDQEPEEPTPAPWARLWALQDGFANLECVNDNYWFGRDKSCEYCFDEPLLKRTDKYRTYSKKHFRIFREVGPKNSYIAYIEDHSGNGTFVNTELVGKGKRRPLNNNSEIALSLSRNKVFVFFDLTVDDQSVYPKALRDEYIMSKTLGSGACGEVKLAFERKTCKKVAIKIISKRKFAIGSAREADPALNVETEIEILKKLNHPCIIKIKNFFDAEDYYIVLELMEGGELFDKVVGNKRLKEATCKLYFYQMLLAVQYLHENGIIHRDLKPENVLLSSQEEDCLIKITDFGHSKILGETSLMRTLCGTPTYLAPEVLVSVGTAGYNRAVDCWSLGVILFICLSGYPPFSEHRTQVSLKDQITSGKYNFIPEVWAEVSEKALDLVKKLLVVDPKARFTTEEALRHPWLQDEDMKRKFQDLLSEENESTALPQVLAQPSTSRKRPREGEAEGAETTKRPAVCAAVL

Structure (SMILES): CNc1cc(Nc2cnc(C#N)c(O[C@H](C)CN(C)C)n2)ncc1C#CC(C)(C)O
IC50 [1]: 2.9 nM | inhibition at 10 µM [2]: 59%

Structure (SMILES): CCc1c2c(nc3ccc(OC(=O)N4CCC(N5CCCCC5)CC4)cc13)-c1cc3c(c(=O)n1C2)COC(=O)[C@]3(O)CC [IRINOTECAN]
Time [3]: 6.4 days | Activity [4]: Non-toxic

Structure (SMILES): COC(=O)c1cnc(Nc2cnc(C#N)c(O[C@@H]3CCNC3)n2)cc1OC
IC50 [1]: 46.5 nM | inhibition at 11 µM [6]: 44%

Structure (SMILES): Nc1ccn([C@@H]2O[C@H](CO)[C@@H](O)C2(F)F)c(=O)n1 [GEMCITABINE]
Activity [12]: Non-toxic | Time [13]: 7.2 days | Activity [14]: Non-toxic | Activity [15]: Non-toxic | Time [16]: 1.6 days | Time [17]: 2.3 days

Structure (SMILES): COC(=O)c1cnc(Nc2cnc(C#N)c(O[C@@H]3CCNC3)n2)cc1N(C)C
IC50 [1]: 8.8 nM | IC50 [5]: 30 µM

Structure (SMILES): CNc1cc(Nc2cnc(C#N)c(O[C@H](C)CN(C)C)n2)ncc1-c1cnn(C)c1
concentration at 6 h [7]: 57 nM | IC50 [18]: 3.2 µM | F [19]: 48% | Therm_solubility [20]: 0.1 mg/mL | CL [21]: 0.132 L/h | concentration at 1 h [8]: 555 nM | MTD [22]: 160 mg/kg | Drug uptake [23]: Active | permeability [24]: 8.8 ×10⁻⁶ cm/s | IC50 [25]: 10 µM | PPB [26]: 70% | IC50 [5]: 12 µM | inhibition [27]: Active | Vdss [28]: 0.209 L | concentration at 6 h [9]: 45 nM | solubility thermodynamic [29]: > 8000 µg/mL | metabolised at 0.5 h [10]: 30% | concentration at 1 h [11]: 910 nM | inhibition [30]: inactive

Structure (SMILES): COc1cc(Nc2cnc(C#N)c(O[C@@H]3CCN(C)C3)n2)ncc1-c1cnn(C)c1
concentration at 6 h [7]: 6 nM | concentration at 1 h [8]: 264 nM | IC50 [1]: 6.3 nM | IC50 [5]: 16 µM | concentration at 6 h [9]: 7 nM | metabolised at 0.5 h [10]: 18% | concentration at 1 h [11]: 1180 nM

Structure (SMILES): CSc1cc(Nc2cnc(C#N)c(O[C@H](C)CN(C)C)n2)ncc1-c1cnn(C)c1
IC50 [1]: 27 nM | IC50 [5]: 8 µM

More lines, main results first:

IC50 [1]: 97 nM
Structure (SMILES): CNc1ccnc(Nc2cnc(C#N)c(O[C@H](C)CN(C)C)n2)c1
inhibition at 10 µM [2]: 71%

IC50 [1]: 20 nM
Structure (SMILES): CNc1cc(Nc2cnc(C#N)c(O[C@H](C)CN(C)C)n2)ncc1Cl
IC50 [5]: 1 µM

concentration at 6 h [7]: 8 nM | concentration at 1 h [8]: 80 nM | IC50 [1]: 26 nM | concentration at 6 h [9]: 29 nM | metabolised at 0.5 h [10]: 42% | concentration at 1 h [11]: 417 nM
Structure (SMILES): CNc1cc(Nc2cnc(C#N)c(O[C@H](C)CN(C)C)n2)ncc1C1CC1
IC50 [5]: 6 µM
